Assay results: EP4737450A1 (Longwood Pharmaceuticals (Hangzhou) Co., Ltd, priority 2023, dated 2025)

Tests used:
[1] = biological target: KLK1 (Homo sapiens, UniProt P06870); assay: Inhibitory activity against KLK1 in vitro (biochemical assay); settings: values given in µM
In short: (§1)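 Compounds were dispensed acoustically from DMSO and tested in duplicate. IC50 values came from nonlinear regression curve fitting.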

[2] = biological target: T1, plasma kallikrein (PKa) (Homo sapiens, UniProt P03952); assay: PKa inhibition in kaolin-activated human platelet-poor plasma (PPP); format: biochemical; settings: Pro-Phe-Arg-AMC substrate, fluorescence signal
T1 construct: purchased R & D 2497-SE
Protocol: Test Example 2. Evaluation of the compounds of the present invention in terms of PKa Inhibition in Kaolin-Activated Human PPP: Platelet-poor plasma (PPP) obtained from human whole blood, anticoagulated with Na - Citrate, was incubated with various concentrations of the test compounds and 25, 75, 250, or 750 µg/mL kaolin in assay buffer for 20 minutes at 37°C, so that a concentration response of the test compounds was obtained with respect to various kaolin concentrations. The positive drug was diluted in accordance with the reference concentration and diluted 3-fold with the diluent as the first point.
50 nL of compounds were then transferred to a 384 assay plate containing 2 replicates per well. The 384 assay plate was centrifuged at 1000 rpm/min. 2.5 µL of human plasma working solution was added to each assay well. The 384 assay plate was centrifuged at 1000 RPM. 2.5 µL of kaolin working solution was added to each assay well. The 384 assay plate was centrifuged at 1000 RPM and incubated at 25°C for 20 minutes. 5 µL of Pro-Phe-Arg-AMC working solution was added to each assay well. The 384 assay plate was centrifuged at 1000 RPM and incubated at 25°C for 60 minutes. BMG reads the fluorescence signal.
The percent inhibition of the compound was calculated according to the following formula: [formula]

[3] = biological target: FXIa (Homo sapiens, UniProt P03951); assay: Inhibitory activity against FXIa in vitro (biochemical assay); settings: values given in µM
In short: as §1

[4] = biological target: T1, plasma kallikrein (PKa); assay: Inhibitory activity against plasma kallikrein in vitro (fluorescence intensity enzyme assay, Pro-Phe-Arg-AMC substrate); format: biochemical; settings: Pro-Phe-Arg-AMC substrate
In short: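 Fluorescence intensity enzyme assay with 10 nM enzyme and 60 µM Pro-Phe-Arg-AMC (final concentrations). Compounds in DMSO, tested in duplicate over a dose series. IC50 from nonlinear regression curve fitting.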

[5] = plasma kallikrein enzyme assay, read-out: PKa IC50
[6] = PKa IC50, plasma kallikrein enzyme assay

Sequence of FXIa (P03951 388-625 limits assumed): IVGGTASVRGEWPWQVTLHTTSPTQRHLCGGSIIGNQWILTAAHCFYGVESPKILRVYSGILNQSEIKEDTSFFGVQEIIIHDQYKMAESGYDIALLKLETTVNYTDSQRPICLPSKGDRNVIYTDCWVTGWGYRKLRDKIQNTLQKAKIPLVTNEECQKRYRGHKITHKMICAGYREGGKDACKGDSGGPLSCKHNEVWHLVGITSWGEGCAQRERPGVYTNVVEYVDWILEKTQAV
Sequence of FXIa (P03951 19-387 partner limits assumed): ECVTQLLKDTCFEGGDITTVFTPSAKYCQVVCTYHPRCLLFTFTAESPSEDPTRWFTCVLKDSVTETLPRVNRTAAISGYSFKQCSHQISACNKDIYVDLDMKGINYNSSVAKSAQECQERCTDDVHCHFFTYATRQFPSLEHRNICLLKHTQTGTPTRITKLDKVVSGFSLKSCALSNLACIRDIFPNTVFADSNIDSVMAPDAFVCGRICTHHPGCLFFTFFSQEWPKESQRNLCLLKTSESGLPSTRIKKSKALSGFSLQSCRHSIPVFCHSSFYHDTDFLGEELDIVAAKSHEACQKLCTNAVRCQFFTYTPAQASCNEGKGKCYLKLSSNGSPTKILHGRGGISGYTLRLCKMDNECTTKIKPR
T1 sequence (P03952 391-638 limits assumed): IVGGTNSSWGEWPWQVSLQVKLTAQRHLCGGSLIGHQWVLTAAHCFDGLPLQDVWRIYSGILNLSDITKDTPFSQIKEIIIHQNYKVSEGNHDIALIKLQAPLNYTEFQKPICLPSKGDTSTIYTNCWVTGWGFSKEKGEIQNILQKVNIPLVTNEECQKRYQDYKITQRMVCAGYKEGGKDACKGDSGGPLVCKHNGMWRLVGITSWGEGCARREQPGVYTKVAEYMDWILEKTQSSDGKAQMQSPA
T1 sequence (P03952 20-390 partner limits assumed): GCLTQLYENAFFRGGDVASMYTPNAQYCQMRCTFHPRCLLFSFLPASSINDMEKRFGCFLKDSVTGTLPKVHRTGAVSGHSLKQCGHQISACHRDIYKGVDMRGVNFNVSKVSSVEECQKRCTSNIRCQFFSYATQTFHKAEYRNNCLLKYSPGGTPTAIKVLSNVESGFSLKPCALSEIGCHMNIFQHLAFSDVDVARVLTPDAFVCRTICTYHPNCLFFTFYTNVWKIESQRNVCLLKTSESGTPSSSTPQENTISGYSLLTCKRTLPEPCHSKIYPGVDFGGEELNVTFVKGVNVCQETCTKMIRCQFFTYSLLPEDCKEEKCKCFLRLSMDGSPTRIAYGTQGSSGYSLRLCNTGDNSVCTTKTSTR
Sequence of KLK1 (P06870 25-262, species assumed): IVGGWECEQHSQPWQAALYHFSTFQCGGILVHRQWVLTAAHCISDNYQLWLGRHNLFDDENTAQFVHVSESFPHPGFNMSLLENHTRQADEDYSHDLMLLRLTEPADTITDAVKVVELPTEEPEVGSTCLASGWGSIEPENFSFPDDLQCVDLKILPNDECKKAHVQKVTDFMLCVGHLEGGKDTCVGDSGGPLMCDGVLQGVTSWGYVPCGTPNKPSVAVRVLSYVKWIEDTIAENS

Compound: N#Cc1cccc([C@@H](NCC2CC2)c2ccc(F)c(NC(=O)c3cc(C(F)(F)F)nn3-c3cccc(CN)c3)c2)c1 [Berotralstat, reference compound]
- IC50 [1]: > 10 µM
- IC50 [2]: 56.3 nM
- IC50 [3]: > 10 µM
- IC50 [4, 5]: 2.21 nM

Compound: Cc1cc(N)nc(C)c1CNC(=O)c1cn(Cc2ccc(Cn3ccccc3=O)cc2)nn1 [Compound 1, N-((6-amino-2,4-dimethylpyridin-3-yl)methyl)-1-(4-((2-oxopyridin-1(2H)-yl)methyl)benzyl)-1H-1,2,3-triazole-4-carboxamide]
- IC50 [1]: > 10 µM
- IC50 [2]: 7.6 nM
- IC50 [3]: > 10 µM
- IC50 [4, 5]: 0.178 nM

Compound: COCc1nn(Cc2ccc(Cn3ccccc3=O)cc2)cc1C(=O)NCc1c(C)cc(N)nc1C [Compound 2, N-((6-amino-2,4-dimethylpyridin-3-yl)methyl)-3-(methoxymethyl)-1-(4-((2-oxopyridin-1(2H)-yl)methyl)benzyl)-1H-pyrazole-4-carboxamide]
- IC50 [1]: > 10 µM
- IC50 [2]: 6.8 nM
- IC50 [3]: > 10 µM
- IC50 [4, 5]: 0.517 nM

Compound: N#Cc1cc(N2CC3C(C2)C3(F)F)ccc1Cn1cc(C(=O)NCc2ccc(C(=N)N)cc2)cn1 (centres unmarked) [Compound 40]
- IC50 [2]: 2.15 nM
- IC50 [4, 5]: < 0.05 nM

Compound: Cc1nc(C)n(Cc2ccc(Cn3cc(C(=O)NCc4ccc(C(=N)N)cc4F)cn3)cc2)n1 [Compound 351]
- IC50 [1]: > 10 µM
- IC50 [3]: > 10 µM
- IC50 [4, 5]: 1.13 nM

Compound: N=C(N)c1ccc(CNC(=O)c2cnn(Cc3ccc(Cn4ccccc4=O)cc3)c2)cn1 [Compound 353]
- IC50 [1]: > 10 µM
- IC50 [3]: > 10 µM
- IC50 [4, 5]: 0.79 nM

Compound: N=C(N)c1ccc(CNC(=O)c2cnn(Cc3ccc(OC4CC4)cc3)c2)cc1 [Compound 354]
- IC50 [1]: > 10 µM
- IC50 [3]: > 10 µM
- IC50 [4, 5]: 2.45 nM

Compound: Cc1cc(C)n(Cc2ccc(Cn3cc(C(=O)NCc4ccc(C(=N)N)cc4F)cn3)cc2)n1 [Compound 355]
- IC50 [1]: > 10 µM
- IC50 [3]: > 10 µM
- IC50 [4, 5]: 0.12 nM

Compound: Cn1ccc2cnc(CNC(=O)c3cnn(Cc4ccc(Cn5ccccc5=O)cc4)c3)c(F)c21 [Compound 356]
- IC50 [1]: > 10 µM
- IC50 [3]: > 10 µM
- IC50 [4, 5]: 2.23 nM

Compound: O=C(NCc1ncc2cc[nH]c2c1F)c1cn(Cc2ccc(Cn3ccccc3=O)cc2)nc1C(F)(F)F [Compound 357]
- IC50 [1]: > 10 µM
- IC50 [3]: > 10 µM
- IC50 [4, 5]: 1.9 nM

Compound: COCc1nn(Cc2ccc(Cn3ccccc3=O)cc2)cc1C(=O)NCc1ccc(C(=N)N)nc1 [Compound 361]
- IC50 [1]: > 10 µM
- IC50 [3]: > 10 µM
- IC50 [4, 5]: 0.09 nM

Compound: O=C(NCc1ncc2cc[nH]c2c1F)c1cnn(Cc2ccc(Cn3ccccc3=O)cc2)c1 [Compound 362, N-((7-fluoro-1H-pyrrolo[3,2-c]pyridin-6-yl)methyl)-1-(4-((2-oxopyridin-1(2H)-yl)methyl)benzyl)-1H-pyrazole-4-carboxamide]
- IC50 [1]: > 10 µM
- IC50 [3]: > 10 µM
- IC50 [4, 5]: 2.57 nM

Compound: COCc1nn(Cc2ccc(Cn3ccccc3=O)cc2)cc1C(=O)NCc1ncc2ccn(C)c2c1F [Compound 363]
- IC50 [1]: > 10 µM
- IC50 [3]: > 10 µM
- IC50 [4, 5]: 2.14 nM

Compound: COCc1nn(Cc2ccc(Cn3ccccc3=O)cc2)cc1C(=O)NCc1ncc2cc[nH]c2c1F [Compound 364]
- IC50 [1]: > 10 µM
- IC50 [3]: > 10 µM
- IC50 [4, 5]: 2.06 nM

Compound: N=C(N)c1ccc(CNC(=O)c2cnn(Cc3cc(F)c(OC4CC4)c(F)c3)c2)cc1 [Compound 365]
- IC50 [1]: > 10 µM
- IC50 [3]: > 10 µM
- IC50 [4, 5]: 1.87 nM

Compound: Cc1cc(C)n(Cc2ccc(Cn3cc(C(=O)NCc4ccc(C(=N)N)cc4)cn3)cc2)n1 [Compound 366]
- IC50 [1]: > 10 µM
- IC50 [3]: > 10 µM
- IC50 [4, 5]: 0.07 nM

Compound: N=C(N)c1ccc(CNC(=O)c2cnn(Cc3c(F)cc(N4CC5C(C4)C5(F)F)cc3F)c2)cc1 (centres unmarked) [Compound 368]
- IC50 [1]: > 10 µM
- IC50 [3]: > 10 µM
- IC50 [4, 5]: 0.19 nM

Compound: Cn1cc(F)c2cnc(CNC(=O)c3cnn(Cc4ccc(Cn5ccccc5=O)cc4)c3)c(F)c21 [Compound 370]
- IC50 [1]: > 10 µM
- IC50 [3]: > 10 µM
- IC50 [4, 5]: 10.2 nM

Compound: COc1cc(Cn2cc(C(=O)NCc3ccc(C(=N)N)cc3)cn2)cc(OC)c1C(=O)C1CC1 [Compound 371]
- IC50 [1]: > 10 µM
- IC50 [3]: > 10 µM
- IC50 [4, 5]: > 100 nM

Compound: N=C(N)c1ccc(CNC(=O)c2cnn(Cc3cc(Cl)c(CC4CC4)c(Cl)c3)c2)cc1 [Compound 372]
- IC50 [1]: > 10 µM
- IC50 [3]: > 10 µM
- IC50 [4, 5]: 0.85 nM

Compound: N=C(N)c1ccc(CNC(=O)c2cnn(Cc3ccc(CC4CC4)nc3)c2)cc1 [Compound 373]
- IC50 [1]: > 10 µM
- IC50 [3]: > 10 µM
- IC50 [4, 5]: 0.56 nM

Compound: N=C(N)c1ccc(CNC(=O)c2cnn(Cc3cnc(N4CC5C(C4)C5(F)F)c(F)c3)c2)cc1 (centres unmarked) [Compound 374]
- IC50 [1]: > 10 µM
- IC50 [3]: > 10 µM
- IC50 [4, 5]: 0.06 nM

Compound: COc1cc(Cn2cc(C(=O)NCc3ccc(C(=N)N)cc3)cn2)cc(OC)c1CC1CC1 [Compound 375]
- IC50 [1]: > 10 µM
- IC50 [3]: > 10 µM
- IC50 [4, 5]: 0.85 nM

Compound: Cn1cnc2cnc(CNC(=O)c3cnn(Cc4ccc(Cn5ccccc5=O)cc4)c3)c(F)c21 [Compound 377]
- IC50 [1]: > 10 µM
- IC50 [3]: > 10 µM
- IC50 [4, 5]: 1.42 nM

Compound: Cn1ccc2cnc(CNC(=O)c3cn(Cc4ccc(Cn5ccccc5=O)cc4)nc3C(F)(F)F)c(F)c21 [Compound 378]
- IC50 [1]: > 10 µM
- IC50 [3]: > 10 µM
- IC50 [4, 5]: 1.41 nM

Compound: N=C(N)c1ccc(CNC(=O)c2cnn(Cc3ccc(OC4CC4)c(C(F)(F)F)c3)c2)cc1 [Compound 379]
- IC50 [1]: > 10 µM
- IC50 [3]: > 10 µM
- IC50 [4, 6]: 0.97 nM

Compound: N=C(N)c1ccc(CNC(=O)c2cnn(Cc3cc(F)c(CC4CC4)c(F)c3)c2)cc1 [Compound 380]
- IC50 [1]: > 10 µM
- IC50 [3]: > 10 µM
- IC50 [4, 5]: 0.27 nM

Compound: Cc1cc(Cn2cc(C(=O)NCc3ccc(C(=N)N)cc3)cn2)cc(C)c1CC1CC1 [Compound 381]
- IC50 [1]: > 10 µM
- IC50 [3]: > 10 µM
- IC50 [4, 5]: 0.03 nM

Compound: N=C(N)c1ccc(CNC(=O)c2cnn(Cc3ccc(N4CC5C(C4)C5(F)F)c(C(F)(F)F)c3)c2)cc1 (centres unmarked) [Compound 382]
- IC50 [1]: > 10 µM
- IC50 [3]: > 10 µM
- IC50 [4, 5]: 0.15 nM

Compound: CN1CCc2cnc(CNC(=O)c3cnn(Cc4ccc(Cn5ccccc5=O)cc4)c3)c(F)c21 [Compound 383]
- IC50 [1]: > 10 µM
- IC50 [3]: > 10 µM
- IC50 [4, 6]: 1.39 nM

Compound: O=C(NCc1ncc2c(c1F)NCC2)c1cnn(Cc2ccc(Cn3ccccc3=O)cc2)c1 [Compound 384]
- IC50 [1]: > 10 µM
- IC50 [3]: > 10 µM
- IC50 [4, 5]: 2.17 nM

Compound: N=C(N)c1ccc(CNC(=O)c2cnn(Cc3ccc(OCC4CC4)c(C(F)(F)F)c3)c2)cc1 [Compound 385]
- IC50 [1]: > 10 µM
- IC50 [3]: > 10 µM
- IC50 [4, 5]: 0.88 nM

Compound: N=C(N)c1ccc(CNC(=O)c2cnn(Cc3ccc(OC4CCCC4)c(C(F)(F)F)c3)c2)cc1 [Compound 386]
- IC50 [1]: > 10 µM
- IC50 [3]: > 10 µM
- IC50 [4, 5]: 1.68 nM

Compound: N=C(N)c1ccc(CNC(=O)c2cnn(Cc3ccc(N4CCC(F)(F)CC4)c(C(F)(F)F)c3)c2)cc1 [Compound 387]
- IC50 [1]: > 10 µM
- IC50 [3]: > 10 µM
- IC50 [4, 5]: 0.08 nM

Compound: N=C(N)c1ccc(CNC(=O)c2cnn(Cc3ccc(N4CCOCC4)c(C(F)(F)F)c3)c2)cc1 [Compound 388]
- IC50 [1]: > 10 µM
- IC50 [3]: > 10 µM
- IC50 [4, 5]: 0.18 nM

Compound: CN1CCc2cnc(CNC(=O)c3cn(Cc4ccc(Cn5ccccc5=O)cc4)nc3C(F)(F)F)c(F)c21 [Compound 389]
- IC50 [1]: > 10 µM
- IC50 [3]: > 10 µM
- IC50 [4, 5]: 1.45 nM

Compound: O=C(NCc1ncc2c(c1F)NCC2)c1cn(Cc2ccc(Cn3ccccc3=O)cc2)nc1C(F)(F)F [Compound 390]
- IC50 [1]: > 10 µM
- IC50 [3]: > 10 µM
- IC50 [4, 5]: 2.02 nM

Compound: COCc1nn(Cc2ccc(Cn3ccccc3=O)cc2)cc1C(=O)NCc1ncc2c(c1F)N(C)CC2 [Compound 391]
- IC50 [1]: > 10 µM
- IC50 [3]: > 10 µM
- IC50 [4, 5]: 1.4 nM

Compound: COCc1nn(Cc2ccc(Cn3ccccc3=O)cc2)cc1C(=O)NCc1ncc2c(c1F)NCC2 [Compound 392]
- IC50 [1]: > 10 µM
- IC50 [3]: > 10 µM
- IC50 [4, 5]: 2.44 nM

Compound: N=C(N)c1ccc(CNC(=O)c2cnn(Cc3cc(Cl)c(C(=O)C4CC4)c(Cl)c3)c2)cc1 [Compound 393]
- IC50 [1]: > 10 µM
- IC50 [3]: > 10 µM
- IC50 [4, 5]: 1.05 nM

Compound: N=C(N)c1ccc(CNC(=O)c2cnn(Cc3cc(F)c(C(=O)C4CC4)c(F)c3)c2)cc1 [Compound 394]
- IC50 [1]: > 10 µM
- IC50 [3]: > 10 µM
- IC50 [4, 5]: 1.56 nM

Compound: O=C(NCc1ncc2c(c1F)OCC2)c1cnn(Cc2ccc(Cn3ccccc3=O)cc2)c1 [Compound 395]
- IC50 [1]: > 10 µM
- IC50 [3]: > 10 µM
- IC50 [4, 5]: 1.68 nM

Compound: COCc1nn(Cc2ccc(Cn3ccccc3=O)cc2)cc1C(=O)NCc1ncc2c(c1F)OCC2 [Compound 396]
- IC50 [1]: > 10 µM
- IC50 [3]: > 10 µM
- IC50 [4, 5]: 2.1 nM
